According to BindingDB's records for doi:10.7270/Q2SX6BMJ (Burnham Center for Chemical Genomics, 2008):

What follows are compounds tested against T1, Alkaline phosphatase, tissue-nonspecific isozyme (Homo sapiens, UniProt P05186) (assay: human TNAP enzyme inhibitors, biochemical, luminescent (AID 518)).
T1 sequence (P05186 whole entry): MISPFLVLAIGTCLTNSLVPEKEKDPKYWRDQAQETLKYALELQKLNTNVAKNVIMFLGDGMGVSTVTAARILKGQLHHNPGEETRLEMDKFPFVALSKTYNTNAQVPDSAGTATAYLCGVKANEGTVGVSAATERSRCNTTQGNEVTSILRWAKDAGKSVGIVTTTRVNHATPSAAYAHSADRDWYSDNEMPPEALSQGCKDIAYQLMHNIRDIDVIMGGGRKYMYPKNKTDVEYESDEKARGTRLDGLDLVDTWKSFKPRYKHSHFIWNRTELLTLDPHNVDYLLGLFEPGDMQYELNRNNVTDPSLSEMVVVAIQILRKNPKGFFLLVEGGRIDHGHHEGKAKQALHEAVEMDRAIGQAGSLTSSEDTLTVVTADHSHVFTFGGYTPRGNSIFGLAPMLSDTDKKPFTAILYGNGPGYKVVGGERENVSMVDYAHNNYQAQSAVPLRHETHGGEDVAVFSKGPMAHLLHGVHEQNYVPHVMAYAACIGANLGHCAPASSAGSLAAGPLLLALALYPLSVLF
Work on `COc1ccc(-c2[nH]nc3oc(=O)cc(C)c23)cc1` yielded an IC50 of 1.35 µM. `COC(=O)c1cc(-c2ccc(Br)cc2)n[nH]1` showed an IC50 of 1.14 µM. `c1ccc(-c2[nH]nc3ccccc23)cc1` was tested, and the IC50 was 3.72 µM. `CC(=N)C(C#N)C(=O)CSc1nnc(-c2ccccc2Br)[nH]1` (configuration not stated) was tested, and the IC50 was 1.73 µM. `O=C(Nc1nnc(C2CCCCC2)[nH]1)C1CCCCC1` was tested, and the IC50 was greater than 100 µM. For `CC1(C)CC(=O)c2c(n[nH]c2Cc2ccccc2)C1`, the IC50 was 1.83 µM. Work on `O=C(O)c1cc(-c2ccc(Cl)cc2)n[nH]1` yielded an IC50 of 2.67 µM. Work on `Brc1ccc(-c2nnc3sc(CNCc4ccc5c(c4)OCO5)cn23)cc1` [1-(1,3-benzodioxol-5-yl)-N-[[3-(4-bromophenyl)-6-thiazolo[2,3-c][1,2,4]triazolyl]methyl]methanamine] yielded an IC50 greater than 100 µM. In the case of `O=C(Cc1ccc(-n2cccc2)cc1)N1CCN(c2ccccc2F)CC1` [1-(2-fluorophenyl)-4-{[4-(1H-pyrrol-1-yl)phenyl]acetyl}piperazine], the IC50 is reported as greater than 100 µM. In the case of `Cc1ccc2c(c1)-c1c(cnn1CC(=O)N1CCCN(Cc3ccccc3F)C1)CO2` [1-[3-(2-fluorobenzyl)hexahydropyrimidin-1-yl]-2-(8-methyl-4H-chromeno[4,3-c]pyrazol-1-yl)ethanone], the IC50 is reported as greater than 100 µM. Compound `O=c1c(=Cc2ccco2)sc2nc(-c3ccccc3Br)nn12` [2-(2-bromophenyl)-5-(2-furanylmethylidene)-6-thiazolo[3,2-b][1,2,4]triazolone] has an IC50 greater than 100 µM. With `Cc1ccc(-n2c(Cc3cccn3C)nnc2SCC(=O)Nc2nnc(C)s2)cc1` [2-({4-(4-methylphenyl)-5-[(1-methyl-1H-pyrrol-2-yl)methyl]-4H-1,2,4-triazol-3-yl}thio)-N-(5-methyl-1,3,4-thiadiazol-2-yl)acetamide] the IC50 was greater than 100 µM. `CCc1ccc(OCc2nc(-c3ccccn3)no2)c(Br)c1` [2-{5-[(2-bromo-4-ethylphenoxy)methyl]-1,2,4-oxadiazol-3-yl}pyridine] showed an IC50 greater than 100 µM. `CCOC(=O)N1CCN(C(=O)c2ccc(CS(=O)(=O)c3ccccc3OC)o2)CC1` [4-[5-[(2-methoxyphenyl)sulfonylmethyl]-2-furoyl]piperazine-1-carboxylic acid ethyl ester] showed an IC50 greater than 100 µM. Work on `Cc1ccsc1C=c1sc2ncnn2c1=O` [5-[(3-methyl-2-thienyl)methylene][1,3]thiazolo[3,2-b][1,2,4]triazol-6(5H)-one] yielded an IC50 of 11.7 µM. `COc1cc(CSc2nnc[nH]2)c(OC)cc1CSc1nnc[nH]1` [5-[[2,5-dimethoxy-4-[(1H-1,2,4-triazol-5-ylthio)methyl]phenyl]methylthio]-1H-1,2,4-triazole] gave an IC50 of 1.66 µM. `COCc1n[nH]c2c1C(c1cc(OC)c(O)c(OC)c1)C(C#N)C(=N)O2` (configuration not stated) [6-azanyl-4-(3,5-dimethoxy-4-oxidanyl-phenyl)-3-(methoxymethyl)-2,4-dihydropyrano[2,3-c]pyrazole-5-carbonitrile] gave an IC50 of 5.25 µM. `COc1ccc2c(c1)CCc1c-2n[nH]c1C(=O)O` [7-methoxy-4,5-dihydro-2H-benzo[g]indazole-3-carboxylic acid] gave an IC50 of 2.62 µM. For `O=C(C1CCN(S(=O)(=O)N2CCC3(CC2)OCCO3)CC1)N1CCN(Cc2ccccc2)CC1` [(4-benzylpiperazin-1-yl)-[1-(1,4-dioxa-8-azaspiro[4.5]decan-8-ylsulfonyl)piperidin-4-yl]methanone], the IC50 was greater than 100 µM. `O=C(Cn1c(-c2ccccc2)noc1=O)Nc1ccc(N2CCCCCC2)cc1` [MLS000027331] was tested, and the IC50 was greater than 100 µM. Compound `Cn1ncc2c1ncn1nc(CCc3ccccc3)nc21` [MLS000040759] has an IC50 of 15.8 µM. `COc1ccc(CNC(=O)C(C)NC(=O)c2cc3ccccc3o2)cc1` (configuration not stated) [MLS000047147] was tested, and the IC50 was greater than 100 µM. Compound `c1ccc(-n2ncc3c2ncn2cnnc32)cc1` [MLS000048783] has an IC50 greater than 100 µM. Work on `Cc1ccc(-n2ncc3c2ncn2c(C)nnc32)cc1C` [MLS000082333] yielded an IC50 of 7.92 µM. `CCCc1nc2c3cnn(-c4cccc(Cl)c4)c3ncn2n1` [MLS000083263] was tested, and the IC50 was greater than 100 µM. `OCc1nnn(-c2cccc(C(F)(F)F)c2)c1CO` [MLS000090420] gave an IC50 greater than 100 µM. For `CCN(CC)S(=O)(=O)c1ccc2c(c1)c(=O)c(C(=O)N1CCOCC1)cn2C` [MLS000092367], the IC50 was greater than 100 µM. Work on `Oc1c2c(c(O)n1-c1nnc(Cc3ccccc3)[nH]1)CC=CC2` [MLS000100008] yielded an IC50 of 0.33 µM. Work on `Cn1c(NC(=O)CC(C)(C)C)cc(=O)n(C)c1=O` [MLS000103608] yielded an IC50 greater than 100 µM. `CCCSc1nnc(NC(C)=O)[nH]1` [MLS000114796] showed an IC50 of 0.82 µM. `Cc1cc(NC(=O)c2noc3c2CCc2ccccc2-3)n(-c2ccccc2)n1` [MLS000116423] gave an IC50 greater than 100 µM. With `CCCCNC(=O)c1ccc2nc(-c3ccco3)c(-c3ccco3)nc2c1` [MLS000119995] the IC50 was greater than 100 µM. Compound `Cc1cc(=O)oc2n[nH]c(-c3ccccc3)c12` [MLS-0013971.0001] has an IC50 of 1.23 µM. Compound `CC1(C)Cc2c(sc3nc4n(c(=N)c23)CCCCC4)CO1` [SMR000039131] has an IC50 of 9.5 µM. With `COC(=O)c1cc(-c2c[nH]c3ccccc23)[nH]n1` [SMR000079439] the IC50 was 1.17 µM. Work on `CCOC(=O)c1sc(NC(=O)CSc2nnc(-c3ccccc3)[nH]2)c(C#N)c1C` [ethyl 4-cyano-3-methyl-5-[[2-[(5-phenyl-1H-1,2,4-triazol-3-yl)sulfanyl]acetyl]amino]thiophene-2-carboxylate] yielded an IC50 of 5.39 µM. `COC(=O)c1cc(-c2ccccc2)n[nH]1` [methyl 3-phenyl-1H-pyrazole-5-carboxylate] showed an IC50 of 1.24 µM.
